Test results published in patent publication US9572786B2, “Use of capsiate or dihydrocapsidate” (Catholic University Industry Academy Cooperation Foundation, priority 2007, dated 2017).

Tested on: hairless mouse (SKH-1)
Assay: UV-induced skin damage in hairless mouse (observation, hematoxylin-eosin staining)
Format: in vivo
Conditions: 200 μL of 1 mM in acetone topically every 24 hours, UV 2.5 kJ/m^2 4 times
Method: In order to confirm the in vitro experiment result performed on the human keratinocyte HaCaT cells in an animal model, experiment was carried out as follows using hairless mouse (SKH-1). Test groups were as follows: non-treated group—treated with acetone only without UV irradiation; test group A—treated with 200 μL of 1 mM capsiate dissolved in acetone every 24 hours without UV irradiation; control group—treated with UV and acetone; test group B—treated with UV and 200 μL of 1 mM capsiate dissolved in acetone every 24 hours (Unspecified conditions are the same as in Examples 5-7.).
Capsiate was applied on the back of the mouse. 1 hour later, UV was irradiated at an intensity of 2.5 kJ/m^2. 1 hour later, capsiate was applied again at the same concentration in order to prevent rash which may occur immediately after UV irradiation. Thereafter, capsiate was applied every 24 hours and UV irradiation was carried out every other day at an intensity of 2.5 kJ/m^2 for 4 times. In order to investigate the change of tissue and intracellular mechanism (signaling), the mouse was euthanized 1 hour after the final UV irradiation. Skin tissue was taken from the back of the mouse and subjected to skin biopsy following observation.
Hematoxylin-eosin staining was carried out in order to investigate the overall change in the skin tissue.

COc1cc(COC(=O)CCCC/C=C/C(C)C)ccc1O [capsiate]
blood vessels and edema (hematoxylin-eosin staining): also decreased | hyperplasia in the epidermis (hematoxylin-eosin staining): decreased remarkably | blood vessel thickness and blood in back skin tissue (vs UV control): less blood vessel thickness and less blood | size and depth of wound induced by UV irradiation (vs UV control): less severe
